Data set [1] in a line: Tolerability in Sprague-Dawley rats: kidney function (Example 19). Format: in vivo. The settings on record: Sprague Dawley rats; for urine protein/creatinine ratio, After: after 50 mg/kg s.c. twice per week for 6 weeks; for urine protein/creatinine ratio, Before: before antisense oligonucleotide treatment. The source says: Urine samples were taken before the start of treatment.

Data set [2] concerns human Factor XI mRNA. Put plainly: Dose-dependent inhibition in HepG2 cells, lipofectin (Example 4). The data set is classed as cell-based. The conditions noted are these: 16 hours. The gist of the method: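 HepG2 cells at 10,000 per well were lipofectin-transfected with 9.375, 18.75, 37.5 or 75 nM antisense oligonucleotide for about 16 h. Factor XI mRNA was quantified by real-time PCR (primer probe set RTS 2966) and normalised to RIBOGREEN total RNA. Values are percent inhibition versus untreated cells.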

The test system of data set [3] is human Factor XI mRNA. The data set can be described thus: Dose-dependent inhibition in HepG2 cells, lipofectin (Example 5). Format: cell-based. The conditions noted are these: 16 hours. The method, then:
Cells were plated at a density of 10,000 cells per well and transfected using lipofectin reagent with 2.34 nM, 4.69 nM, 9.375 nM, 18.75 nM, 37.5 nM, and 75 nM concentrations of antisense oligonucleotide, as specified in Table 11. After a treatment period of approximately 16 hours, RNA was isolated from the cells and human Factor XI mRNA levels were measured by quantitative real-time PCR. Human Factor XI primer probe set RTS 2966 was used to measure mRNA levels. Factor XI mRNA levels were adjusted according to total RNA content, as measured by RIBOGREEN®. Results are presented as percent inhibition of human Factor XI, relative to untreated control cells.

In data set [4] the test system is human Factor XI mRNA. Put plainly: Dose-dependent inhibition in HepG2 cells, electroporation (Example 4). Format: cell-based. The settings on record: 16 hours. The gist of the method: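 HepG2 cells electroporated with 0.7, 2.2, 6.7 or 20 μM antisense gapmer and harvested after ~16 h. Factor XI mRNA quantified by qRT-PCR (primer probe set RTS 2966), normalised to total RNA (RIBOGREEN). Reported as percent inhibition versus untreated control cells.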

The subject of data set [5] is human Factor XI mRNA. The data set can be described thus: Dose-dependent inhibition in HepG2 cells, electroporation (Example 5). Format: cell-based. The conditions noted are these: approx. 16 h, relative to untreated control cells. The method, then: The gapmers were also transfected via electroporation and their dose dependent inhibition of human Factor XI mRNA was measured. Cells were plated at a density of 20,000 cells per well and transfected via electroporation with 625 nM, 1250 nM, 2500 nM, 5,000 nM, 10,000 nM, and 20,000 nM concentrations of antisense oligonucleotide, as specified in Table 12. After a treatment period of approximately 16 hours, RNA was isolated from the cells and human Factor XI mRNA levels were measured by quantitative real-time PCR. Human Factor XI primer probe set RTS 2966 was used to measure mRNA levels. Factor XI mRNA levels were adjusted according to total RNA content, as measured by RIBOGREEN®. Results are presented as percent inhibition of human Factor XI, relative to untreated control cells.

Data set [6] deals with human Factor XI mRNA. The data set can be described thus: Antisense inhibition in HepG2 cells by microwalk gapmers, 8,000 nM, electroporation (Example 14). The data set is classed as cell-based. The settings on record: HepG2 cells, 8,000 nM. The method, boiled down: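 HepG2 cells electroporated with 8,000 nM 2′-MOE phosphorothioate gapmer (5-10-5, 5-8-5 or 6-8-6). Factor XI mRNA measured after ~24 h by qRT-PCR, normalised to RIBOGREEN total RNA. Reported as percent inhibition versus untreated cells.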

In the oligonucleotide strings, read from the 5' end, every base follows the letter of its sugar. An asterisk marks phosphorothioate; unmarked linkages are phosphodiester. Other units and linkages are bracketed, terminal groups are in braces. A string of capitals states the bases alone. e = 2'-O-(2-methoxyethyl) (MOE); [5mC] = 5-methylcytosine; d = 2'-deoxy (DNA)

On to “417002 (antisense GGTGCACAGTTTCTGGCAGG; 2-13-5 gapmer, wing sugar chemistry not given here, further chemistry not given here) [compound 417002]”, for which the “urine protein/creatinine ratio, After” value in data set [1] came out at 2.4. Moreover, the “urine protein/creatinine ratio, Before” value in data set [1] came out at 1.0. The “percent inhibition of Factor XI mRNA, relative to untreated control cells” value in the data set on human Factor XI mRNA [2] (9.375 nM) stood at 35%; in the data set on human Factor XI mRNA [2] (18.75 nM) it was 52%; with human Factor XI mRNA [2] (37.5 nM), 67%; with human Factor XI mRNA [2] (75 nM) it was 70%; with human Factor XI mRNA [4] (0.7 μM), 32%; in the data set with human Factor XI mRNA [4] (2.2 μM), 38%. Moreover, the “percent inhibition of Factor XI mRNA, relative to untreated control cells” value is recorded as 82% in the data set with human Factor XI mRNA [4] (6.7 μM) and 91% with human Factor XI mRNA [4] (20 μM). Further, the “percent inhibition of human Factor XI mRNA, relative to untreated control cells” value in the data set on human Factor XI mRNA [3] (2.34 nM) is given as 17%; in the data set with human Factor XI mRNA [3] (4.69 nM), 26%; in the data set on human Factor XI mRNA [3] (9.375 nM), 49%; with human Factor XI mRNA [3] (18.75 nM) it was 61%; in the data set on human Factor XI mRNA [3] (37.5 nM), 81%; in the data set with human Factor XI mRNA [3] (75 nM) it was 84%. For the same substance, the “percent inhibition of human Factor XI mRNA” value with human Factor XI mRNA [5] (625 nM) was 59%; in the data set with human Factor XI mRNA [5] (1250 nM), 72%; in the data set with human Factor XI mRNA [5] (2500 nM), 86%; in the data set with human Factor XI mRNA [5] (5000 nM) it was 90%; in the data set on human Factor XI mRNA [5] (10000 nM), 94%; with human Factor XI mRNA [5] (20000 nM), 96%.
“416925 (antisense GGTGCACAGTTTCTGGCAGG; 3-14-3 chimeric gapmer, wing sugar chemistry not given here, further chemistry not given here) [compound 416925]”: the “urine protein/creatinine ratio, After” value in data set [1] is 4.3. Further, in data set [1], the “urine protein/creatinine ratio, Before” value was determined as 1.0. Further, the “percent inhibition of Factor XI mRNA, relative to untreated control cells” value in the data set on human Factor XI mRNA [2] (9.375 nM) is on record as 13%; in the data set with human Factor XI mRNA [2] (18.75 nM), 38%; in the data set with human Factor XI mRNA [2] (37.5 nM) it was 59%; in the data set on human Factor XI mRNA [2] (75 nM), 75%; with human Factor XI mRNA [4] (0.7 μM), 0%; in the data set on human Factor XI mRNA [4] (2.2 μM) it was 40%. Further, the “percent inhibition of Factor XI mRNA, relative to untreated control cells” value stood at 76% with human Factor XI mRNA [4] (6.7 μM) and 80% in the data set with human Factor XI mRNA [4] (20 μM). The “percent inhibition of human Factor XI mRNA, relative to untreated control cells” value turned out to be 24% in the data set on human Factor XI mRNA [3] (2.34 nM); 34% with human Factor XI mRNA [3] (4.69 nM); 45% with human Factor XI mRNA [3] (9.375 nM); 56% with human Factor XI mRNA [3] (18.75 nM); 67% in the data set on human Factor XI mRNA [3] (37.5 nM); 72% in the data set with human Factor XI mRNA [3] (75 nM). The “percent inhibition of human Factor XI mRNA” value in the data set with human Factor XI mRNA [5] (625 nM) worked out at 64%; in the data set on human Factor XI mRNA [5] (1250 nM), 80%; with human Factor XI mRNA [5] (2500 nM), 88%; in the data set with human Factor XI mRNA [5] (5000 nM) it was 91%; with human Factor XI mRNA [5] (10000 nM), 95%; in the data set on human Factor XI mRNA [5] (20000 nM), 96%.
With “416999 (antisense GCACAGTTTCTGGCAGGCCT; 2-13-5 gapmer, wing sugar chemistry not given here, further chemistry not given here) [compound 416999]”, the “urine protein/creatinine ratio, After” value in data set [1] is on record as 9.1. The “urine protein/creatinine ratio, Before” value in data set [1] was 1.3. Further, the “percent inhibition of Factor XI mRNA, relative to untreated control cells” value was 24% with human Factor XI mRNA [2] (9.375 nM); 37% in the data set on human Factor XI mRNA [2] (18.75 nM); 55% with human Factor XI mRNA [2] (37.5 nM); 73% with human Factor XI mRNA [2] (75 nM); 20% in the data set on human Factor XI mRNA [4] (0.7 μM); 42% in the data set on human Factor XI mRNA [4] (2.2 μM). Besides, the “percent inhibition of Factor XI mRNA, relative to untreated control cells” value with human Factor XI mRNA [4] (6.7 μM) is reported as 77%; in the data set on human Factor XI mRNA [4] (20 μM) it was 88%. The “percent inhibition of human Factor XI mRNA, relative to untreated control cells” value with human Factor XI mRNA [3] (2.34 nM) is 10%; with human Factor XI mRNA [3] (4.69 nM), 26%; in the data set on human Factor XI mRNA [3] (9.375 nM), 42%; with human Factor XI mRNA [3] (18.75 nM), 62%; with human Factor XI mRNA [3] (37.5 nM), 72%; in the data set on human Factor XI mRNA [3] (75 nM) it was 80%. Further, the “percent inhibition of human Factor XI mRNA” value is on record as 61% with human Factor XI mRNA [5] (625 nM); 82% in the data set on human Factor XI mRNA [5] (1250 nM); 89% in the data set on human Factor XI mRNA [5] (2500 nM); 94% with human Factor XI mRNA [5] (5000 nM); 94% in the data set with human Factor XI mRNA [5] (10000 nM); 97% with human Factor XI mRNA [5] (20000 nM).
On to “417003 (antisense TGGTGCACAGTTTCTGGCAG; 2-13-5 gapmer, wing sugar chemistry not given here, further chemistry not given here) [compound 417003]”, for which, in data set [1], the “urine protein/creatinine ratio, After” value was 4.8. Besides, in data set [1], the “urine protein/creatinine ratio, Before” value is 0.9. For the same substance, the “percent inhibition of Factor XI mRNA, relative to untreated control cells” value in the data set on human Factor XI mRNA [2] (9.375 nM) was 26%; in the data set with human Factor XI mRNA [2] (18.75 nM), 44%; with human Factor XI mRNA [2] (37.5 nM), 60%; with human Factor XI mRNA [2] (75 nM) it was 56%; in the data set with human Factor XI mRNA [4] (0.7 μM), 0%; in the data set with human Factor XI mRNA [4] (2.2 μM), 34%. Also, the “percent inhibition of Factor XI mRNA, relative to untreated control cells” value turned out to be 75% in the data set on human Factor XI mRNA [4] (6.7 μM) and 89% in the data set with human Factor XI mRNA [4] (20 μM). The “percent inhibition of human Factor XI mRNA, relative to untreated control cells” value in the data set with human Factor XI mRNA [3] (2.34 nM) stood at 6%; with human Factor XI mRNA [3] (4.69 nM) it was 29%; in the data set with human Factor XI mRNA [3] (9.375 nM), 48%; with human Factor XI mRNA [3] (18.75 nM) it was 64%; with human Factor XI mRNA [3] (37.5 nM), 73%; in the data set on human Factor XI mRNA [3] (75 nM), 82%. For the same substance, the “percent inhibition of human Factor XI mRNA” value came out at 60% with human Factor XI mRNA [5] (625 nM); 74% in the data set on human Factor XI mRNA [5] (1250 nM); 86% with human Factor XI mRNA [5] (2500 nM); 90% with human Factor XI mRNA [5] (5000 nM); 95% in the data set on human Factor XI mRNA [5] (10000 nM); 95% in the data set with human Factor XI mRNA [5] (20000 nM).
Turning to “445531 (antisense eG*eG*e[5mC]*eA*eT*dT*dG*dG*dT*dG*d[5mC]*dA*d[5mC]*eA*eG*eT*eT*eT) [compound 445531]”, in the data set on human Factor XI mRNA [6], the “Percent inhibition of human Factor XI mRNA levels” value is on record as 90%.
For the substance “445522 (antisense eG*e[5mC]*eA*e[5mC]*eA*dG*dT*dT*dT*d[5mC]*dT*dG*dG*e[5mC]*eA*eG*eG*e[5mC]) [compound 445522]”, the “Percent inhibition of human Factor XI mRNA levels” value in the data set on human Factor XI mRNA [6] turned out to be 91%.
